Measured values published in ChEMBL document CHEMBL1201862, “PubChem BioAssay data set” (2004).
“And” between values parts separate entries of the source, which are not always exact repeats. Equal values may be shown once.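 Where inhibition never reached the appropriate level, the endpoint shown equals the highest concentration tested. Otherwise, values were interpolated linearly from a five-concentration, 48-hour dose response in 96-well plates. Abbreviation: GI50, concentration required for 50% inhibition of growth.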 The source made the active and inactive calls. No stated cut-off is given here; in the data, active = GI50 up to about 1.1 µM and inactive = higher.

Key:
Experiment in all cases: inhibition of tumour cell growth, NCI panel, 48 h
HL-60 = tested on: HL-60
K562 = tested on: K562
CCRF-CEM = tested on: CCRF-CEM
HCT-15 = tested on: HCT-15
RXF 393 = tested on: RXF 393
NCI-H226 = tested on: NCI-H226
UACC-257 = tested on: UACC-257
SN12C = tested on: SN12C
SK-MEL-5 = tested on: SK-MEL-5
ACHN = tested on: ACHN
SNB-75 = tested on: SNB-75
A549 = tested on: A549
SW-620 = tested on: SW-620
HCT-116 = tested on: HCT-116
T47D = tested on: T47D
NCI/ADR-RES = tested on: NCI/ADR-RES
OVCAR-3 = tested on: OVCAR-3
SF-295 = tested on: SF-295
HCC 2998 = tested on: HCC 2998
UACC-62 = tested on: UACC-62

Row | SMILES | GI50 (HL-60) | GI50 (K562) | GI50 (CCRF-CEM) | GI50 (HCT-15) | GI50 (RXF 393) | GI50 (NCI-H226) | GI50 (UACC-257) | GI50 (SN12C) | GI50 (SK-MEL-5) | GI50 (ACHN) | GI50 (SNB-75) | GI50 (A549) | GI50 (SW-620) | GI50 (HCT-116) | GI50 (T47D) | GI50 (NCI/ADR-RES) | GI50 (OVCAR-3) | GI50 (SF-295) | GI50 (HCC 2998) | GI50 (UACC-62)
1 | CN1CC[N+](C)=C1c1ccccc1 | > 100 µM (inactive) | > 100 µM (inactive) | > 100 µM (inactive) | > 100 µM | > 100 µM (inactive) | > 100 µM (inactive) | > 100 µM (inactive) | > 100 µM (inactive) | > 100 µM (inactive) | > 100 µM (inactive) | > 100 µM (inactive) | > 100 µM (inactive) | > 100 µM (inactive) | > 100 µM (inactive) | > 100 µM (inactive) | > 100 µM (inactive) | > 100 µM (inactive) | > 100 µM (inactive) | > 100 µM (inactive) | –
2 | C#C[C@]1(O)CC[C@H]2[C@@H]3CCC4=C/C(=N/OC(=O)c5cccc6c(=O)c7ccccc7[nH]c56)CC[C@@H]4[C@H]3CC[C@@]21C | 17.4 µM (inactive) | 17.3 µM (inactive) | 14.4 µM (inactive) | 36.5 µM | > 100 µM (inactive) | 83.6 µM (inactive) | 37.2 µM (inactive) | > 100 µM (inactive) | 20.2 µM (inactive) | 66.1 µM (inactive) | 97.7 µM (inactive) | 64.3 µM (inactive) | 56.2 µM (inactive) | 48.5 µM (inactive) | 29 µM (inactive) | 58.6 µM (inactive) | 64.1 µM (inactive) | 92 µM (inactive) | 50.5 µM (inactive) | 35.6 µM (inactive)
3 | CCO/C=N\C1=C(C#N)SC2=N/C(=C\c3ccc(OC)cc3)C(=O)N21 | 87.1 µM (inactive) | 25.9 µM (inactive) | > 100 µM (inactive) | 85.9 µM | 43.5 µM (inactive) | > 100 µM (inactive) | > 100 µM (inactive) | > 100 µM (inactive) | > 100 µM (inactive) | 94.2 µM (inactive) | 19.2 µM (inactive) | > 100 µM (inactive) | > 100 µM (inactive) | > 100 µM (inactive) | > 100 µM (inactive) | > 100 µM (inactive) | – | 59.3 µM (inactive) | 39.5 µM (inactive) | –
4 | CO/N=C1\CC(NC(=O)C(F)(F)F)c2ccsc21 (configuration not stated) | > 100 µM (inactive) | > 100 µM (inactive) | > 100 µM (inactive) | > 100 µM | > 100 µM (inactive) | > 100 µM (inactive) | > 100 µM (inactive) | > 100 µM (inactive) | > 100 µM (inactive) | – | > 100 µM (inactive) | > 100 µM (inactive) | > 100 µM (inactive) | > 100 µM (inactive) | > 100 µM (inactive) | > 100 µM (inactive) | > 100 µM (inactive) | > 100 µM (inactive) | > 100 µM (inactive) | > 100 µM (inactive)
5 | Nc1c2c(nc3ccccc13)CCCc1ccccc1-2 | 5.9 µM (inactive) | 5.7 µM (inactive) | – | 13.8 µM | 11.4 µM (inactive) | 15.9 µM (inactive) | 12.7 µM (inactive) | 12.8 µM (inactive) | 8.45 µM (inactive) | 10.3 µM (inactive) | 13.5 µM (inactive) | 16.3 µM (inactive) | 5.94 µM (inactive) | 4.78 µM (inactive) | 11 µM (inactive) | 20.3 µM (inactive) | 27 µM (inactive) | 7.23 µM (inactive) | 1.83 µM (inactive) | 6.7 µM (inactive)
6 | Cc1cn(C2CC(OP(=O)(O)OCC3OC(n4c[n+]([BH2-]C#N)c5c(=O)[nH]c(N)nc54)CC3O)C(CO)O2)c(=O)[nH]c1=O (configuration not stated) | > 100 µM (inactive) | > 100 µM (inactive) | > 100 µM (inactive) | > 100 µM | > 100 µM (inactive) | > 100 µM (inactive) | > 100 µM (inactive) | > 100 µM (inactive) | > 100 µM (inactive) | > 100 µM (inactive) | > 100 µM (inactive) | > 100 µM (inactive) | – | > 100 µM (inactive) | > 100 µM (inactive) | > 100 µM (inactive) | > 100 µM (inactive) | > 100 µM (inactive) | > 100 µM (inactive) | > 100 µM (inactive)
7 | CC(=O)OC1COC(n2c(N)c(C#N)c(-c3ccccc3)c(C#N)c2=S)C(OC(C)=O)C1OC(C)=O (configuration not stated) | 23.2 µM (inactive) | – | 26.1 µM (inactive) and 35.2 µM (inactive) | 52.6 µM and 72.6 µM | 34.4 µM (inactive) and 33 µM (inactive) | – | 57.7 µM (inactive) and 80.9 µM (inactive) | 48.1 µM (inactive) and 36.7 µM (inactive) | 37.9 µM (inactive) and 30.3 µM (inactive) | 45.7 µM (inactive) and 71.4 µM (inactive) | 43.4 µM (inactive) and 24.4 µM (inactive) | 71 µM (inactive) and 85.9 µM (inactive) | 56.2 µM (inactive) and 64.3 µM (inactive) | 45.5 µM (inactive) and 37.8 µM (inactive) | 33 µM (inactive) and 28.8 µM (inactive) | > 100 µM (inactive) and 71.6 µM (inactive) | 28.9 µM (inactive) and 33.2 µM (inactive) | > 100 µM (inactive) | 25.6 µM (inactive) and 27.4 µM (inactive) | 33 µM (inactive) and 35.1 µM (inactive)
